{
  "source": "patent US8309543B2",
  "about": "(priority 2003, dated 2012)",
  "origin": "cited, not measured here",
  "key": {"[1]": {"conditions": "in vivo"}, "NaV1.8": {"target": "NaV1.8 (Homo sapiens, UniProt Q9Y5Y9)", "sequence (Q9Y5Y9 whole entry, looked up)": "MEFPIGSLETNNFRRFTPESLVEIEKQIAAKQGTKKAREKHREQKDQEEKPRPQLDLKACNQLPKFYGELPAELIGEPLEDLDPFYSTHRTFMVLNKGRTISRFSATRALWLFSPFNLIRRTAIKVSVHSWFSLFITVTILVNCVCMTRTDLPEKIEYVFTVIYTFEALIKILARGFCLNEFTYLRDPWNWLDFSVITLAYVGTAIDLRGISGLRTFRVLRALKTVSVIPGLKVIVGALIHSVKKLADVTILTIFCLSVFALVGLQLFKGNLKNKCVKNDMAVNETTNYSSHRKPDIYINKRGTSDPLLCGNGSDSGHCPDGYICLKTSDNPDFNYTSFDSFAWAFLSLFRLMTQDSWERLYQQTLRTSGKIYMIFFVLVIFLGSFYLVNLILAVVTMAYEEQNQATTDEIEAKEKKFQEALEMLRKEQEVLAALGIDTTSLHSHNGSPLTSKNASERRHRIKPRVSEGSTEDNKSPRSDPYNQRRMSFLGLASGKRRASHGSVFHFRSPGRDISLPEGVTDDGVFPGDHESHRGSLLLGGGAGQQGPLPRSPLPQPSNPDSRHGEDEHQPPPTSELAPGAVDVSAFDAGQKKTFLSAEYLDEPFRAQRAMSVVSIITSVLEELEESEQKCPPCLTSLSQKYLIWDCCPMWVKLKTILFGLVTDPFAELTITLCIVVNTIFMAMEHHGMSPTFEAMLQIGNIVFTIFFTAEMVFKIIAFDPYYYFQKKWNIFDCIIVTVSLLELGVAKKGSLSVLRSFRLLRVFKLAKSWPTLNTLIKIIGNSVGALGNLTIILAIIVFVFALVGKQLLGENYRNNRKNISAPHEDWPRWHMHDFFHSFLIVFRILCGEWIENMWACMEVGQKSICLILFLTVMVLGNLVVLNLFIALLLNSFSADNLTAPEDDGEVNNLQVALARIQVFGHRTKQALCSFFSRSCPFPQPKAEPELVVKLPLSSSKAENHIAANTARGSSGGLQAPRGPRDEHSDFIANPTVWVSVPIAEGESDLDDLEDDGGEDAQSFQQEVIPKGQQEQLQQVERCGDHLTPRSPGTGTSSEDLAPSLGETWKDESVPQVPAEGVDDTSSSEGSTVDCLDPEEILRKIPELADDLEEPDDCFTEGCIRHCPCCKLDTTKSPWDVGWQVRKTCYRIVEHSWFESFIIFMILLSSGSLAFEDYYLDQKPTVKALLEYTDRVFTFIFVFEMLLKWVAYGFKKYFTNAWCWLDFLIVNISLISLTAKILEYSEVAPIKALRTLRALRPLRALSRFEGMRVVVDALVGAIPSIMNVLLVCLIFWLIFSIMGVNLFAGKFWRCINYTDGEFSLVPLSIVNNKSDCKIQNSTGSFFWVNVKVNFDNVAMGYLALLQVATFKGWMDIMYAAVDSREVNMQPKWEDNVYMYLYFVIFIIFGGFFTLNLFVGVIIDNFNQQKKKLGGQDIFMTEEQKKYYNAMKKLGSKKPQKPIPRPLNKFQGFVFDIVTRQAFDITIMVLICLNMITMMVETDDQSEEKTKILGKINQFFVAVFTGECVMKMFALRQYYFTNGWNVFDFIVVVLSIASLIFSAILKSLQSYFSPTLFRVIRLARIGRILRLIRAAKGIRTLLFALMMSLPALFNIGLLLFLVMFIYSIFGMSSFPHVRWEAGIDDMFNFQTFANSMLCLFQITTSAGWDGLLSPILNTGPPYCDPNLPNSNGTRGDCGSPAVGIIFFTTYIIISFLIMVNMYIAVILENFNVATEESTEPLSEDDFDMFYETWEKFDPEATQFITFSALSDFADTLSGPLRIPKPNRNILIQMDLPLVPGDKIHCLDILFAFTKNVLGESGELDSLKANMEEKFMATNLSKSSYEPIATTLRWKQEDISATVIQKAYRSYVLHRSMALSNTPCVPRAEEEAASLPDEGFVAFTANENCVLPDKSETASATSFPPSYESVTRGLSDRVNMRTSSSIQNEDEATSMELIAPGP", "conditions": "read-out: TTX IC50"}, "NaV1.3": {"target": "NaV1.3 (Homo sapiens, UniProt Q9NY46)", "sequence (Q9NY46 whole entry, looked up)": "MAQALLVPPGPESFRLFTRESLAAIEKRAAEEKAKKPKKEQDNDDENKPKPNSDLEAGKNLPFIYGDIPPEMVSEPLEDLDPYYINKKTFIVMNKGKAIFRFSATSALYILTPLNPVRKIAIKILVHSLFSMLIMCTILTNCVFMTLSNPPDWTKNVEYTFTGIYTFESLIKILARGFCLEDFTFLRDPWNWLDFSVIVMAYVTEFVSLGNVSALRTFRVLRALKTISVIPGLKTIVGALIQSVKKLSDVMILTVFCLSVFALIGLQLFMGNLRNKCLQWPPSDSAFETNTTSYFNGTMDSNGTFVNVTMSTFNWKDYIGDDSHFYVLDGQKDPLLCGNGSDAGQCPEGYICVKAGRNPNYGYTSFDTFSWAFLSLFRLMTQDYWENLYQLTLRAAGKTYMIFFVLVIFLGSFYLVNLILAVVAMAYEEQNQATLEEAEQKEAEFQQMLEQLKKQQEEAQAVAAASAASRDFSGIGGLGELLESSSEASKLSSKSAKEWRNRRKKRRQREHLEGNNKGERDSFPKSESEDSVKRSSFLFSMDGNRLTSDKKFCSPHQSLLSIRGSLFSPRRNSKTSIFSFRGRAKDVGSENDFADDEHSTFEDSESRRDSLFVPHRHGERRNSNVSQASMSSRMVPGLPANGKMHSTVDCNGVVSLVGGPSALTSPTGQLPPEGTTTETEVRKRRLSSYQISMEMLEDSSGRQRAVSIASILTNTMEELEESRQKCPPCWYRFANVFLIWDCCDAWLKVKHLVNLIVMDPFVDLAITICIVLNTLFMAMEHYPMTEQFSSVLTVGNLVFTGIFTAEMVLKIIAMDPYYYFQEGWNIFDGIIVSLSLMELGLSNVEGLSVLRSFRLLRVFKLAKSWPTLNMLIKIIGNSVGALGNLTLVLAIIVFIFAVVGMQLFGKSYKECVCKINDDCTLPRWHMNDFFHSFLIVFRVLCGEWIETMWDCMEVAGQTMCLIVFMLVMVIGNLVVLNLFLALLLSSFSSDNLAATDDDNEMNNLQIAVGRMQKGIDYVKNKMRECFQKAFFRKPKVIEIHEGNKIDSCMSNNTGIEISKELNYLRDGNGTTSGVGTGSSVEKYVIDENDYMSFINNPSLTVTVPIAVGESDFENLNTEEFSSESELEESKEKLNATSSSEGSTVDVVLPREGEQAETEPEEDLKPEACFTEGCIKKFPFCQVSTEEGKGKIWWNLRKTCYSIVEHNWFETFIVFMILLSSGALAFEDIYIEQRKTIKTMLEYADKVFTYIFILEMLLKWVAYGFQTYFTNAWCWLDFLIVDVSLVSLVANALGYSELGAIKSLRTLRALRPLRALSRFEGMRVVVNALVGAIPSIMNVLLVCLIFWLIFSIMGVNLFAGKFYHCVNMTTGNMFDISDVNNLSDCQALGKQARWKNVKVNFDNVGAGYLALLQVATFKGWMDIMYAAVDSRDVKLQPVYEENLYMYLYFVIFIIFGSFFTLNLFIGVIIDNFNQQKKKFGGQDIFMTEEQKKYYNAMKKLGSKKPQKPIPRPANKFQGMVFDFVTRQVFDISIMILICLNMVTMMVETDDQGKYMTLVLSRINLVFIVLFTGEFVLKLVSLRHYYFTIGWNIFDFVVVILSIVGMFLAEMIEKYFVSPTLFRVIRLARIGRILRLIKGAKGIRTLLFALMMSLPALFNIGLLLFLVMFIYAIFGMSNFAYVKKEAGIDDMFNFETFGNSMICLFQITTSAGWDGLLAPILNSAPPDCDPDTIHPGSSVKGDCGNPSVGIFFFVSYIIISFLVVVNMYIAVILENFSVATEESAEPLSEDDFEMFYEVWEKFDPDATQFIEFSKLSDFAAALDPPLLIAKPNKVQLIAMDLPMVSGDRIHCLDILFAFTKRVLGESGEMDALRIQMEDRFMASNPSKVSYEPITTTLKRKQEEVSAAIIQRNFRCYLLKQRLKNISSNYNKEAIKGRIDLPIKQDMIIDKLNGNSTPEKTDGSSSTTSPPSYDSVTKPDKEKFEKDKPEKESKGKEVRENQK", "conditions": "read-out: TTX IC50"}},
  "data": [
    {"compound": "NCC1(CC(=O)O)CCCCC1", "note": "[Gabapentin]", "values": [
      {"measurement": "share of patients in which the drug works", "setting": "[1]", "result": 60, "unit": "%"}
    ]},
    {"compound": "NC1=N[C@H](O)[C@H]2[C@H]3O[C@]4(O)O[C@@H]([C@@H](O)[C@@]2(N1)[C@@H]4O)[C@]3(O)CO", "note": "[TTX, tetrodotoxin]", "values": [
      {"measurement": "IC50", "setting": "NaV1.8", "result": "> 50000", "unit": "nM"},
      {"measurement": "IC50", "setting": "NaV1.3", "result": 15, "unit": "nM"}
    ]}
  ]
}
